# Results reported in patent US20150056702A1, “METHOD AND KIT FOR CULTURING STEM CELLS” (China Medical University, priority 2013, published 2015).
# Legend:
# ES cells = assay: Examination of cell survival (MTT assay); type: cell-based, mouse; conditions: for relative cell survival rate: control = 100
# Description: (§1) The following steps were conducted in order to culture ES cells: • (1) preparing a stem cell medium: DMEM+15% heat-inactivated FBS+NEAA (0.1 mM)+L-glutamine (2 mM)+β-mercaptoethanol (0.2 mM); • (2) preparing a BP-containing solution: dissolving BP into DMSO to form a BP-containing solution (100 mg/ml), and storing the solution at −20° C.; • (3) adding different amounts of the BP-containing solution in step (2) into the stem cell medium in step (1) to form different BP-containing mediums, wherein the amount of BP were about 5, 10, 20 or 40 μg per milliliter of the stem cell medium respectively (i.e. the experimental group mediums: BP5, BP10, BP20 and BP40); and • (4) using the BP-containing medium of in step (3) to culture a ES cell (retrieved from the embryos in the blastula stage of 129sv/J mice) at 37° C., 5% CO2 and 95% humidity on the feeder cells provided by Example 1.
# In this example, 3-(4,5-dimethylthiazol-2-yl)-2,5-diphenyl tetrazolium bromide (MTT) was used to determine if the cell survival rate of stem cells will be influenced when BP was served as a substitute for LIF.
# MTT is a water-soluble tetrazolium salt which can react in the mitochondrial respiratory chain in living cells, to metabolize and reduce the tetrazolium bromide shown in the structure of MTT and to form an water-insoluble purple crystal formazan under the reaction of succinate dehydrogenase (SDH) and cytochrome c (cyt c). The amount of the produced crystal is directly proportional to the number of living cells (because the SDH will disappear from dead cells and the MTT cannot be reduced). Furthermore, mitochondrium is an organelle in cells most sensitive to the environment, and thus, the MTT assay could serve as a marker of the survival rate of cells treated by a drug.
# An experimental group medium (BP5, BP10, BP20 or BP40) and a control group medium (without BP) were added respectively into a 96-well micro-culture plate to culture ES cells with an initial density of 5×10^3 per well for 24 to 72 hours. Then, 10 μl of 0.5 mg/ml MTT (Sigma) was added into each well and the cells were incubated in an incubator at 37° C. and 5% CO2 for 2 to 4 hours. The medium was removed, and 100 μl of DMSO was added into each well and maintained at 37° C. for 10 minutes. The absorbances of the samples were measured at a wavelength of 570 nm to obtain the data of the experimental group (with BP) and control group (without BP). The absorbance of control group was served as a reference to calculate the relative cell survival rate of each experimental group.
# Oct4 = assay: Real-time PCR, Oct4 gene expression in ES cells; type: cell-based, mouse; conditions: for Oct4 gene expression level: ES cells, control group = 100%
# Description: as §1
# An experimental group medium (BP5, BP10, BP20 or BP40) and a control group medium (without BP) were added respectively to perform the following steps. ES cells were cultured with an initial density of 1×10^4 per well in a 6-well culture dish. The medium was removed until the cells growth to be about 70 to 80% confluence, and then 1 ml TRIzol (Invitrogen) was added into each well. The cells were incubated for 5 minutes, and then was scraped by a spatula and placed into a 1.5 ml microtube to be lysed adequately. Chloroform (0.2 ml) was added into the microtubes. The mixture was shaken up and down for 15 seconds, and then incubated at room temperature for 2 to 3 minutes. Thereafter, the mixture was centrifuged at 12000 rpm at 4° C. for 15 minutes, and the supernatant was removed into another 1.5 ml microtube and isopropanol (0.5 ml) was added into the microtube with well mixing. The mixture was incubated at room temperature for 10 minutes and then centrifuged at 12000 rpm at 4° C. for 10 minutes. The supernatant was then removed. One ml of 70% ethanol containing DEPC.H2O was used to wash the remaining sediment. The sediment was centrifuged at 7500 rpm at 4° C. for 5 minutes. The supernatant was removed. The sediment was dried by vacuum suction. The dried samples were dissolved in about 0.01 to 0.02 ml of DEPC.H2O to obtain the experimental group RNA and control group RNA. Both groups were stored at −80° C.
# The OD value of RNA samples in both groups obtained from the above Experiment I were measured at a wavelength of 260 nm (RNA: OD260=1 for a 40 μg/mL solution). Each RNA sample (2 μl) was added with RNA-free water until the volume of the sample reached 10 μl. Two μl oligo (dT) (100 μg/ml) was added into each sample, and the samples were incubated at 65° C. for 5 minutes. Then, the samples were immediately placed on ice and spun down. Next, 6.5 μl of a reaction solution [4 μl of 5× buffer+1 μl of 0.1 M DTT+1 μl of RNase out+0.5 μl of SSIII (Invitrogen)] was added into each of the samples, and the samples were incubated at 50° C. for about 30 to 60 minutes and at 75° C. for 15 minutes to obtain the experimental group cDNA and control group cDNA. Both groups were stored at −80° C.
# This experiment was used to detect the expression levels of ES cell-related genes, i.e., Oct4 and Sox2, etc. […] The cycle threshold (CT) values were measured.
compound,measurement,setting,value
"CCCC=C1OC(=O)c2ccccc21 [BP, n-butylidenephthalide]",relative cell survival rate,"ES cells; BP5 medium (about 5 μg BP/ml), 24 hours",95.212
same,relative cell survival rate,"ES cells; BP5 medium (about 5 μg BP/ml), 72 hours",99.816
same,relative cell survival rate,"ES cells; BP10 medium (about 10 μg BP/ml), 24 hours",98.092
same,relative cell survival rate,"ES cells; BP10 medium (about 10 μg BP/ml), 72 hours",93.848
same,relative cell survival rate,"ES cells; BP20 medium (about 20 μg BP/ml), 24 hours",95.076
same,relative cell survival rate,"ES cells; BP20 medium (about 20 μg BP/ml), 72 hours",92.399
same,relative cell survival rate,"ES cells; BP40 medium (about 40 μg BP/ml), 24 hours",97.550
same,relative cell survival rate,"ES cells; BP40 medium (about 40 μg BP/ml), 72 hours",90.128
same,survival rate of stem cells,"ES cells; addition of BP into the ES cell medium, result in words",will not affect the survival rate of stem cells
same,Oct4 gene expression level,Oct4; BP5 medium (about 5 μg BP/ml),119%
same,Oct4 gene expression level,Oct4; BP10 medium (about 10 μg BP/ml),419%
same,Oct4 gene expression level,Oct4; BP20 medium (about 20 μg BP/ml),258%
same,Oct4 gene expression level,Oct4; BP40 medium (about 40 μg BP/ml),144%
same,gene expression level of Oct4,"Oct4; BP-containing ES cell culture medium vs control group, result in words",significantly up-regulated
